Source: patent US20140221499A1, “NOVEL RODENT CONTROL AGENTS AND USES THEREOF” (priority 2011, published 2014)

Assays:
[1] = tested on: mouse olfactory sensory neurons; assay: Confocal calcium imaging of olfactory sensory neurons in tissue slices; assay type: cell-based
Description: The mammalian olfactory system encodes odor identity using combinations of olfactory receptors (11). […] Here, we used a confocal imaging strategy to record cytosolic calcium transients of single sensory neurons in real time. Viability of analyzed neurons was determined after odor exposures by KCl-induced depolarization.
Confocal calcium imaging of olfactory sensory neurons in tissue slices. Recordings were performed as described (Spehr M, et al. (2006) Essential role of the main olfactory system in social recognition of major histocompatibility complex peptide ligands. J Neurosci 26(7):1961-1970) with the following modifications. For calcium sensitive dye loading, slices of olfactory epithelium were incubated (30 min, 4° C.) in HEPES solution (in mM: 145 NaCl, 5 KCl, 1 CaCl2, 1 MgCl2, 10 HEPES; pH=7.3) containing Fluo-4/AM (2 μM; Molecular Probes). Slices were transferred to a recording chamber (Slice Mini Chamber, Luigs & Neumann, Ratingen, Germany) and visualized using a Leica DM6000CFS confocal fixed stage upright microscope (Leica Microsystems, Mannheim, Germany) equipped with an apochromatic water immersion objective (HC X APO L20x/1.0 W) and infrared-optimized differential interference contrast (DIC) optics. Slices were anchored via stainless steel wires with 0.1 mm lycra threads and continuously superfused with HEPES-buffered solution. Changes in cytosolic calcium were monitored over time at 1.0 Hz frame rate. Stimulus application as well as solution exchange during inter-stimulus intervals was achieved by a custom-made, pressure-driven focal application device consisting of a software-controlled valve bank connected to a 7-in-1 ‘perfusion pencil’. Rhodamine application controlled for uniform flow and even stimulus application throughout the epithelial sensory surface. Offline analysis of time-lapse experiments was performed using LAS-AF software (Leica). All cells in a given field of view were marked as individual regions of interest (ROIs), and the relative fluorescence intensity for each ROI was calculated and processed as a function of time.

mTAAR7f = target: T1, mTAAR7f (Mus musculus, UniProt Q5QD08); assay: CRE-SEAP reporter gene assay in HEK293 cells transfected with mTAAR7f; assay type: cell-based; parameters: Full Taar coding regions were cloned into pcDNA3.1; expressed in transfected cells; host or cells: HEK293; settings: FIG. 11B, not the mutant mTAAR7f-SS, functional with or without 'Rho tag', EC50 ± s.e.m., 4-parameter Hill equation
T1 sequence (Q5QD08 1-358): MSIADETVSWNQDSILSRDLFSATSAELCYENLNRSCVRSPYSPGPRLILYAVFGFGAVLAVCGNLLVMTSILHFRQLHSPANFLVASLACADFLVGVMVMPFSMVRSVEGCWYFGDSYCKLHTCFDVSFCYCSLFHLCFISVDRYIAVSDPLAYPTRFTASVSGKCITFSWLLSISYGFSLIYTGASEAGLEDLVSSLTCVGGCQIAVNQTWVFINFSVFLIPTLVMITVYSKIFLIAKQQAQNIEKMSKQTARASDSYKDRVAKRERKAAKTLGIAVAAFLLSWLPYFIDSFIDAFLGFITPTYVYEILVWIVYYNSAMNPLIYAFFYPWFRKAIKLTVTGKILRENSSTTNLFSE
Description: FIG. 11 illustrates the dose-dependent responses of TAARs to amines. HEK293 cells were cotransfected with plasmids encoding CRE-SEAP and rTAARs (a) or mTAARs (b), incubated with concentrations of ligands indicated, and assayed for reporter activity (triplicates±s.d.). EC50 values (±s.e.m, bottom right) were calculated using SigmaPlot (Systat Software) and a 4-parameter Hill equation.
Chemicals tested for the ability to activate mouse TAARs include those previously described (Liberles, S. D., and Buck, L. B. (2006) A second class of chemosensory receptors in the olfactory epithelium, Nature 442, 645-650), as well as the following mixes (5 μM of each indicated compounds). Mix 1: N,N-dimethyl-cyclohexylamine, N,N-dimethyl-phenylethylamine, creatinine, taurine. […]
Full Taar coding regions were cloned into pcDNA3.1-(Invitrogen) with or without a 5′ DNA extension of 69 bp encoding the first 20 amino acids of bovine rhodopsin followed by a cloning linker ([…]). […] Fluorescence was measured on an EnVision plate reader (Perkin Elmer) and SEAP activity graphed as relative fluorescence of a phosphatase substrate.
Here, we set out to identify agonists for additional mouse and rat TAARs. […] Transfected cells were incubated with test chemicals, and phosphatase activity was quantified with a fluorescent substrate as a reporter for TAAR activation. […]

| Structure (SMILES) | activation of olfactory sensory neurons ([1]; dorsal and ventral olfactory epithelium) | 2-phenylethylamine-responsive neurons activated by all four test stimuli ([1]; dorsal olfactory epithelium) | 2-phenylethylamine-responsive neurons distinguishing lion and giraffe urine and not responding to benzylamine ([1]; of 2-phenylethylamine-responsive neurons (13/52)) | 2-phenylethylamine-responsive neurons distinguishing lion and giraffe urine and not responding to benzylamine ([1]; of all dorsal KCl-responsive neurons (13/1268)) | EC50 (mTAAR7f) |
| --- | --- | --- | --- | --- | --- |
| NCCc1ccccc1 [2-phenylethylamine] | activated a subset of KCl-responsive olfactory sensory neurons | 30/52 | 25% | ~1% | – |
| CN(C)C1CCCCC1 [N,N-DIMETHYLCYCLOHEXYLAMINE, N,N-dimethylcyclohexylamine] | – | – | – | – | 440 ± 130 nM |
